Measured values: US11304944B2, “MetAP2 inhibitors and methods of treating obesity” (SynDevRx, Inc., priority 2013, dated 2022)

Tests used:
DIO C57Bl6 mice = experiment: Efficacy of various compounds in DIO mouse model (body weight versus time); format: in vivo; conditions: 2 mg/kg q4d sc; for BW change vs. vehicle: day 26
Procedure: On study day 1 animals were randomized into groups so that the average weight of the mice in each group was 47 g. The mice were treated with either phosphate buffered saline (vehicle), or compounds as listed in Table 19 dissolved in vehicle (dorsal, subcutaneous administration).

DIO Levin rats [1] = experiment: In vivo testing DIO Levin rats: weight changes, food consumption, insulin, leptin levels; conditions: for Final BW: after 68 days, 60% fat diet
Procedure: CKD-732 as referred to herein is the hemitartrate salt of the following structure:
Test articles were administered subcutaneously on an every 4 day (q4d) schedule in a diet-induced obesity (DIO) Levin-DS rat model. […] A dietary intervention (Standard Chow, Labdiet 5001; 3.4 kcal/g) was included to compare to the drug interventions. Upon arrival at three weeks of age, the male rats received ad libitum pellets of Harlan Diet TD.06414, 60% of calories from fat, 21% of calories from carbohydrate; 5.1 kcal/g. Prior to dosing the rats were randomized into groups of three animals with an average body weight of 595 gm. […] Compound 1 in the form of the hemitartrate and CKD-732 in the form of the hemitartrate were dissolved in ethanol prior to dilution with vehicle. All doses were administered at a volume of 5.0 ml/kg. […] On day 1, first dose, the rats were 14 weeks of age. Also on day 1, Group 2 was switched from the high fat diet to a standard chow diet; the remaining groups were maintained on a high fat diet for the duration of the study.
(§1) Animals were weighed every other day. Food consumption was measured weekly. On an approximately weekly basis throughout the study, blood samples were taken for assessment of serum chemistries including glucose and insulin. On Day 48 all rats underwent a 4 hour fasted Oral Glucose Tolerance Test (OGTT). Animals were dosed orally (per os, PO) at 8 mL/kg 25% glucose (2 g/kg). On day 68, gross pathology was performed to determine body composition.

DIO Levin rats [2] = experiment: Oral Glucose Tolerance Test (OGTT) Day 48 and HOMA-ir in DIO Levin rats; format: in vivo; conditions: for Blood Glucose, Time 15 / Blood Glucose, Time 30 / Blood Glucose, Time 60 / Blood Glucose, Time 90 / Blood Glucose, Time 120: OGTT; for BW: at OGTT;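 for Blood Glucose pre-OGTT: blood glucose in mg/dL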;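 for Blood Glucose, Time 120: blood glucose in mg/dL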;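 for Blood Glucose, Time 15: blood glucose in mg/dL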;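 for Blood Glucose, Time 30: blood glucose in mg/dL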;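 for Blood Glucose, Time 60: blood glucose in mg/dL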;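 for Blood Glucose, Time 90: blood glucose in mg/dL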
Procedure: as §1

[3] = Plasma pharmacokinetics after single IV bolus in Sprague Dawley rats (LC/MS/MS, analyte Compound 1); format: in vivo; conditions: male, rat, Compound 1 30 mg/kg single IV bolus
Procedure: Blood samples were collected via saphenous vein puncture at 0, 0.25, 0.5, 1, 2, 4, 8, 24 and 48 hours.

poly[HPMA-co-MA-GFLG-NH-2-[(2-(2-aminoethoxy)ethoxy)ethyl]carbamoylfumagillol] [Compound bb]
Group Avg. BW, Study Day 1 (DIO C57Bl6 mice): 47.0 g | Group Avg. BW, Study Day 7 (DIO C57Bl6 mice): 43.6 g | Group Avg. BW, Study Day 15 (DIO C57Bl6 mice): 43.9 g | Group Avg. BW, Study Day 21 (DIO C57Bl6 mice): 42.2 g | Group Avg. BW, Study Day 26 (DIO C57Bl6 mice): 42.5 g | BW change vs. vehicle (DIO C57Bl6 mice): −7.8%

COC1C(OC(=O)N[C@H]2CC[C@H](N)CC2)CC[C@]2(CO2)C1[C@@]1(C)O[C@@H]1CC=C(C)C (stereo partly drawn) [Compound 1, Fumagill-6-yl [trans-(4-aminocyclohexyl)]carbamate]
lower body weight than vehicle (DIO Levin rats [1]; 1 mg/kg Q4D): 3.9% | Avg. Insulin Day 7 (DIO Levin rats [1]; 1 mg/kg q4d sc): 1.83 ng/mL | Avg. Insulin Day 15 (DIO Levin rats [1]; 1 mg/kg q4d sc): 1.39 ng/mL | Avg. Insulin Day 23 (DIO Levin rats [1]; 1 mg/kg q4d sc): 1.20 ng/mL | Avg. Insulin Day 48 (DIO Levin rats [1]; 1 mg/kg q4d sc): 1.75 ng/mL | Avg. Insulin Pre-dosing (DIO Levin rats [1]; 1 mg/kg q4d sc): 1.92 ng/mL | Group Average Food Consumption Day 1-8 (DIO Levin rats [1]; 1 mg/kg q4d sc): 128.6 g | Group Average Food Consumption Day 9-15 (DIO Levin rats [1]; 1 mg/kg q4d sc): 109.3 g | Group Average Food Consumption Day 16-23 (DIO Levin rats [1]; 1 mg/kg q4d sc): 121.1 g | Group Average Food Consumption Day 24-30 (DIO Levin rats [1]; 1 mg/kg q4d sc): 145.9 g | Group Average Food Consumption Day 31-36 (DIO Levin rats [1]; 1 mg/kg q4d sc): 144.6 g | Group Average Food Consumption Day 37-43 (DIO Levin rats [1]; 1 mg/kg q4d sc): 141.7 g | Group Average Food Consumption Day 44-50 (DIO Levin rats [1]; 1 mg/kg q4d sc): 122.4 g | Group Average Food Consumption Day 51-57 (DIO Levin rats [1]; 1 mg/kg q4d sc): 147.7 g | Group Average Food Consumption Day 58-63 (DIO Levin rats [1]; 1 mg/kg q4d sc): 140.7 g | Group Average Food Consumption Day 63-68 (DIO Levin rats [1]; 1 mg/kg q4d sc): 55.1 g | Leptin Levels Day 29 (DIO Levin rats [1]; 1 mg/kg q4d sc): 2.47 | Leptin Levels Pre-dose (DIO Levin rats [1]; 1 mg/kg q4d sc): 2.50 | Leptin Levels, Day 29, % Change from Baseline (DIO Levin rats [1]; 1 mg/kg q4d sc): −1.3% | Final BW (DIO Levin rats [1]; 1.0 mg/kg q4d sc): 717.3 g | lower body weight than the vehicle control (DIO Levin rats [1]; 3 mg/kg Q4D, end of the study): 8.9% | Avg. Insulin Day 7 (DIO Levin rats [1]; 3 mg/kg q4d sc): 1.35 ng/mL | Avg. Insulin Day 15 (DIO Levin rats [1]; 3 mg/kg q4d sc): 1.68 ng/mL | Avg. Insulin Day 23 (DIO Levin rats [1]; 3 mg/kg q4d sc): 1.27 ng/mL | Avg. Insulin Day 48 (DIO Levin rats [1]; 3 mg/kg q4d sc): 1.40 ng/mL | Avg. Insulin Pre-dosing (DIO Levin rats [1]; 3 mg/kg q4d sc): 2.10 ng/mL | Group Average Food Consumption Day 1-8 (DIO Levin rats [1]; 3 mg/kg q4d sc): 123.6 g | Group Average Food Consumption Day 9-15 (DIO Levin rats [1]; 3 mg/kg q4d sc): 98.9 g | Group Average Food Consumption Day 16-23 (DIO Levin rats [1]; 3 mg/kg q4d sc): 110.1 g | Group Average Food Consumption Day 24-30 (DIO Levin rats [1]; 3 mg/kg q4d sc): 149.3 g | Group Average Food Consumption Day 31-36 (DIO Levin rats [1]; 3 mg/kg q4d sc): 138.8 g | Group Average Food Consumption Day 37-43 (DIO Levin rats [1]; 3 mg/kg q4d sc): 130.9 g | Group Average Food Consumption Day 44-50 (DIO Levin rats [1]; 3 mg/kg q4d sc): 94.7 g | Group Average Food Consumption Day 51-57 (DIO Levin rats [1]; 3 mg/kg q4d sc): 116.2 g | Group Average Food Consumption Day 58-63 (DIO Levin rats [1]; 3 mg/kg q4d sc): 124.9 g | Group Average Food Consumption Day 63-68 (DIO Levin rats [1]; 3 mg/kg q4d sc): 49.8 g | Leptin Levels Day 29 (DIO Levin rats [1]; 3 mg/kg q4d sc): 3.60 | Leptin Levels Pre-dose (DIO Levin rats [1]; 3 mg/kg q4d sc): 3.23 | Leptin Levels, Day 29, % Change from Baseline (DIO Levin rats [1]; 3 mg/kg q4d sc): 11.33% | Final BW (DIO Levin rats [1]; 3.0 mg/kg q4d sc): 684.0 g | reduction in leptin levels (DIO Levin rats [1]; serum leptin day 29): did not result in significant reductions in leptin levels | Blood Glucose pre-OGTT (DIO Levin rats [2]; 1 mg/kg q4d sc): 124 mg/dL | HOMA-ir (Insulin Sensitivity) 15 min (DIO Levin rats [2]; 1 mg/kg q4d sc): 42.7 | HOMA-ir (Insulin Sensitivity) 30 min (DIO Levin rats [2]; 1 mg/kg q4d sc): 21.1 | HOMA-ir (Insulin Sensitivity) Pre-dose (DIO Levin rats [2]; 1 mg/kg q4d sc): 15.4 | Blood Glucose, Time 15 (DIO Levin rats [2]; 1 mg/kg q4d sc): 156 mg/dL | Blood Glucose, Time 30 (DIO Levin rats [2]; 1 mg/kg q4d sc): 142 mg/dL | Blood Glucose, Time 60 (DIO Levin rats [2]; 1 mg/kg q4d sc): 152 mg/dL | Blood Glucose, Time 90 (DIO Levin rats [2]; 1 mg/kg q4d sc): 151 mg/dL | Blood Glucose, Time 120 (DIO Levin rats [2]; 1 mg/kg q4d sc): 142 mg/dL | BW (DIO Levin rats [2]; 1 mg/kg q4d sc): 686 g | Blood Glucose pre-OGTT (DIO Levin rats [2]; 3 mg/kg q4d sc): 123 mg/dL | HOMA-ir (Insulin Sensitivity) 15 min (DIO Levin rats [2]; 3 mg/kg q4d sc): 29.2 | HOMA-ir (Insulin Sensitivity) 30 min (DIO Levin rats [2]; 3 mg/kg q4d sc): 9.5 | HOMA-ir (Insulin Sensitivity) Pre-dose (DIO Levin rats [2]; 3 mg/kg q4d sc): 12.2 | Blood Glucose, Time 15 (DIO Levin rats [2]; 3 mg/kg q4d sc): 175 mg/dL | Blood Glucose, Time 30 (DIO Levin rats [2]; 3 mg/kg q4d sc): 171 mg/dL | Blood Glucose, Time 60 (DIO Levin rats [2]; 3 mg/kg q4d sc): 149 mg/dL | Blood Glucose, Time 90 (DIO Levin rats [2]; 3 mg/kg q4d sc): 147 mg/dL | Blood Glucose, Time 120 (DIO Levin rats [2]; 3 mg/kg q4d sc): 129 mg/dL | BW (DIO Levin rats [2]; 3 mg/kg q4d sc): 668 g | Cmax [3]: ~15 µM | half-life [3]: 10 to 15 min

poly[HPMA-co-MA-GFLG-N-(cis-4-aminocyclohexyl)carbamoylfumagillol] [Compound cis-16]
Group Avg. BW, Study Day 1 (DIO C57Bl6 mice): 47.0 g | Group Avg. BW, Study Day 7 (DIO C57Bl6 mice): 42.7 g | Group Avg. BW, Study Day 15 (DIO C57Bl6 mice): 42.6 g | Group Avg. BW, Study Day 21 (DIO C57Bl6 mice): 40.9 g | Group Avg. BW, Study Day 26 (DIO C57Bl6 mice): 40.6 g | BW change vs. vehicle (DIO C57Bl6 mice): −12.0%
